Source: ChEMBL document CHEMBL3987221, “The Australian National University Dept Of Immunology Pathogen Box Compounds Screened” (2018)
Calls of active or inactive are those of the source. How the calls were made is not given here.

Key:
[1] = target: T1, Ferrochelatase, mitochondrial (Homo sapiens) (UniProt P22830); details: at 10 µM
T1 sequence (whole entry): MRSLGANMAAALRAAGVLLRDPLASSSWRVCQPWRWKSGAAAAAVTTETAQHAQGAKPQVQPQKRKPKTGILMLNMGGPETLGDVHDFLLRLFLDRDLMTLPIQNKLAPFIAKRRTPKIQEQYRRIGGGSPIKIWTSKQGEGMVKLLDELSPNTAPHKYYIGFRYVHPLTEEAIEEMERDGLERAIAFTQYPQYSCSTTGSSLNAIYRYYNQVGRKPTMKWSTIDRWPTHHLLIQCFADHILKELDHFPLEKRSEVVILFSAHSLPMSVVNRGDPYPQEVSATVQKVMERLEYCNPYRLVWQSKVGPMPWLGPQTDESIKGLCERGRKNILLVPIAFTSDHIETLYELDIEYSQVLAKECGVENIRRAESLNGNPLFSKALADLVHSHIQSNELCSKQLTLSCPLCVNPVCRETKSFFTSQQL
Description: Compound was evaluated for the inhibition of human FECH at 10uM

[2] = target: T2, Porphobilinogen deaminase (Homo sapiens) (UniProt P08397); details: at 100 µM
T2 sequence (whole entry): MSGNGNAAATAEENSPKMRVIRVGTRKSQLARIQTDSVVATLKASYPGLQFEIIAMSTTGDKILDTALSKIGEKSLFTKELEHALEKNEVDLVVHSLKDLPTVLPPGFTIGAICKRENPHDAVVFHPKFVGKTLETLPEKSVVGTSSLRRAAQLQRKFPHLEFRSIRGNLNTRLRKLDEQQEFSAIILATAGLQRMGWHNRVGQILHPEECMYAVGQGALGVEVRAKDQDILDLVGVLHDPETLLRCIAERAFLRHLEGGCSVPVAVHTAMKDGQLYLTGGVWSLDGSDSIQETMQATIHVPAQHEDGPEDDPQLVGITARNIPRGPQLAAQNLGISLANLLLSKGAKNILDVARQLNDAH
Description: Compound was evaluated for the inhibition of human HMBS at 100uM

inhibition [1] | inhibition [2] | Compound
inactive | inactive | CC1=Nc2ccc(Cl)cc2C(c2ccccc2)N1CCNC(=O)CN(C)C (stereo not drawn)
inactive | inactive | COc1cc2ncnc(NC3CCN(Cc4ccccc4)CC3)c2cc1OC
inactive | inactive | Cc1noc(C)c1C(=O)N1CCCC(c2[nH]c3c(C)cccc3c2-c2ccncc2)C1 (stereo not drawn)
inactive | inactive | COc1cccn2c(C(=O)N3CCCCC3)c(C(F)(F)F)nc12
inactive | inactive | N=C(N)c1ccc(OCCCCCOc2ccc(C(=N)N)cc2)cc1
inactive | inactive | Nc1nc(N)c2c3c(sc2n1)CN(Cc1ccccc1)CC3
inactive | inactive | Cc1noc(C)c1COc1cccc(C(=O)N=c2[nH]cccc2C)c1
inactive | inactive | CCC(C)NC(=O)c1ccc(NC(=O)C2(c3ccccc3)CCCC2)cc1 (stereo not drawn)
inactive | inactive | O=C(CCC1CCCCC1)Nc1cccc(-c2nnc(-c3ccco3)o2)c1
inactive | inactive | O=C(NCc1nnc2n1CCCCC2)c1ccc(-c2ccc(F)cc2)o1
inactive | inactive | O=C(Nc1ccc(N2CCNCC2)cc1)c1ccn2ncc(-c3cccc(Cl)c3)c2n1
inactive | inactive | O=C(Nc1ccc(C(F)(F)F)c(C(F)(F)F)c1)c1cc(Cl)ccc1O
inactive | inactive | CN1CCC(c2cc(-c3ccncc3)c(-c3ccc(F)cc3)[nH]2)CC1
inactive | inactive | CCN(CC)S(=O)(=O)c1ccc(C(=O)Nc2cc(C)nn2-c2nc(C)c(C)c(=O)[nH]2)cc1
inactive | inactive | c1csc(-c2cnc3sc(NCC4CCOCC4)nn23)c1
inactive | inactive | c1ccc(Oc2ccc(-c3cc(N4CCNCC4)[nH]n3)cc2)cc1
inactive | inactive | O=C(NCCN1CCCC1)c1cc(NCCN2CCOCC2)nc2ccc(Cl)cc12
inactive | inactive | CCOc1ccc(OCC(=O)Nc2cc(C)cc(C)c2)cc1
inactive | inactive | CC(C(=O)N1CCCC1)N1CCN(S(=O)(=O)c2ccc(C(C)(C)C)cc2)CC1 (stereo not drawn)
inactive | inactive | c1ccc(C[C@@H]2CN(c3nccc(Oc4ccc(-n5ccnc5)cc4)n3)CCN2)cc1
inactive | inactive | O=C(Nc1ccccc1)c1ccc(-c2cc3ccncc3cc2OC2CCNCC2)s1
inactive | inactive | Cc1ccc(Oc2ccc(NC(=O)CNc3ccccc3N3CCCC3=O)cc2)cc1
inactive | inactive | CCCCN(CCCC)c1c(C#N)cc(S(=O)(=O)Nc2ccccc2)cc1C#N
inactive | inactive | OCc1ccc(-c2cncc(Nc3cccc(Cl)c3)c2)cc1
inactive | inactive | CC(=O)N1CCN(c2ccc(Oc3ccc(Cl)cc3O)cc2)CC1
inactive | inactive | Nc1ncc(-c2ccc(C(F)(F)F)nc2)cc1-c1ccc(C(F)(F)F)nc1
inactive | inactive | CCOc1ccc(-c2nc(CNCCc3ccc(F)cc3)cs2)cc1

inhibition [1] | inhibition [2] | Compound
inactive | inactive | CC(C)(C)c1ccc(N[C@@H]2CCCC[C@H]2NC(=O)c2ccco2)cc1
inactive | inactive | N#Cc1ccc(-c2cnc(N)c(-c3ccc(C(N)=O)cc3)n2)cc1
inactive | inactive | C[C@H](c1ccc2c(c1)CCCC2)N(C)c1ncc2c(N)nc(N)nc2n1
inactive | inactive | CC(C)(C)OC(=O)N1CCC(Cn2nc(-c3cnc4ccccc4c3)c3c(N)ncnc32)CC1
inactive | inactive | NS(=O)(=O)c1cncc(-c2ccc3nccc(-c4cn[nH]c4)c3n2)c1
inactive | inactive | CN(C)CCNC(=O)N1CCCN(c2ncnc3cc(-c4ccccc4)sc23)CC1
inactive | inactive | Cc1[nH]c2ccccc2c1C(c1cccs1)N1CCN(C)CC1 (stereo not drawn)
inactive | inactive | CCOc1ccc2cc(-c3nn(C(C)(C)C)c(N)c3C(N)=O)cnc2c1
inactive | inactive | Cc1ccc(-c2nc(CN(Cc3ccccn3)C(C)C)cs2)o1
inactive | inactive | N#Cc1nc(-c2ccccc2)oc1S(=O)(=O)c1ccc(Cl)cc1
inactive | inactive | CC(C)(C)OC(=O)N1CCN(c2nccc(-c3ccc(-c4ccc(Cl)cc4)s3)n2)CC1
inactive | inactive | CC(C)(C)OC(=O)N1CCN(c2cc(-c3ccc(Oc4ccccc4)cc3)n[nH]2)CC1
inactive | inactive | CN1CCN(CCCOc2ncc(Nc3ncc(-c4ccc(C(F)(F)F)c(F)c4)nc3C(N)=O)cn2)CC1
inactive | inactive | COc1ccc(C2(C(=O)Nc3ccc(Br)cc3)CCCC2)cc1
inactive | inactive | CC(C)n1nc(-c2cc3c(Cl)cccc3[nH]2)c2c(N)ncnc21
inactive | inactive | CN1CCN(c2nccc3nc(-c4ccc(F)c(F)c4)[nH]c23)CC1
inactive | inactive | O=C(Nc1ccnc(-c2cccnc2)n1)c1cc(C(F)(F)F)cc(C(F)(F)F)c1
inactive | inactive | CCC(Sc1nc2ccccc2o1)C(=O)Nc1nnc(C)s1 (stereo not drawn)
inactive | inactive | OCCc1ccc(Nc2nccc(-c3nnc4ccccn34)n2)cc1
inactive | inactive | COc1ccccc1CNC(=O)c1cc(C2CC2)nc2c1cnn2C(C)C
inactive | inactive | Cc1ccc(S(=O)(=O)n2cc(-c3ccnc(N)c3)c3cc(Br)cnc32)cc1
inactive | inactive | CC[C@H](CO)NCCN[C@H](CC)CO
inactive | inactive | Cc1cc2nc(NC(=O)C(C)(C)C)nc(Cl)c2n1Cc1ccc(Cl)cc1
inactive | inactive | COc1ccc(C2=NN(C3CCCCCC3)C(=O)C2(C)C)cc1OCCCCOc1ccc(-c2nn[nH]n2)cc1
inactive | inactive | CCN(CC)CCCN1CCN(C(=O)c2cccc(-c3noc(C(F)(F)F)n3)c2)CC1
inactive | inactive | CC(C(=O)Nc1ccc2oc(-c3ccncc3)nc2c1)c1ccccc1 (stereo not drawn)

Compound | inhibition [1] | inhibition [2]
CO/N=C(\C(=O)OC)c1ccccc1CO/N=C(\C)c1cccc(C(F)(F)F)c1 | inactive | inactive
